Assay results as given in patent US8921555B2, “Substituted-1,3,8-triazaspiro[4.5]decane-2,4-diones” (Merck Sharp & Dohme Corp., priority 2009, dated 2014).
pIC50: −log10 of the molar value.

Target: T1, HIF-PHD2 (Homo sapiens, UniProt Q9GZT9)
T1 construct: FLAG-tagged full length PHD2 expressed in and purified from baculovirus-infected Sf9 cells; FLAG; made in house; host or cells: baculovirus-infected Sf9 cells
Assay: Assay for HIF-PHD2 Catalytic Activity (PHD2 Binding Activity)
Format: biochemical
Conditions: not given

T1 sequence (Q9GZT9 whole entry): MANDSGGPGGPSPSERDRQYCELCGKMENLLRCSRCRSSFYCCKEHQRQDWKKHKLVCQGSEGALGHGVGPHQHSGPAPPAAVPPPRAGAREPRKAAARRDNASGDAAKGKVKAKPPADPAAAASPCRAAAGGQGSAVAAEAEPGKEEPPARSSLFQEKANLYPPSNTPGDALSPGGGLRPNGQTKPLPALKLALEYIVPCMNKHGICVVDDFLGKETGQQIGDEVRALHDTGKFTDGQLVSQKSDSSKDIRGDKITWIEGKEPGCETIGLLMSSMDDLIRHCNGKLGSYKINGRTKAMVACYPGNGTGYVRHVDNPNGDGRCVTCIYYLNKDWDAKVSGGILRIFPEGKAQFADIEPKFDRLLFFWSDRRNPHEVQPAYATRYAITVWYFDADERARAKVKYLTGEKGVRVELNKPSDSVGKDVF

Cc1cccnc1CN1CCC2(CC1)C(=O)N(c1ccc(-c3ccccc3)cc1)C(=O)N2c1cc(C(=O)O)ccn1 [Compound 1-5, 2-{3-biphenyl-4-yl-8-[(3-methylpyridin-2-yl)methyl]-2,4-dioxo-1,3,8-triazaspiro[4.5]dec-1-yl}isonicotinic acid] and Cc1cccnc1CN1CCC2(CC1)C(=O)N(c1ccc(-c3ccccc3)cc1)C(=O)N2c1cccc(C(=O)O)n1 [Compound 1-14, 6-{3-biphenyl-4-yl-8-[(3-methylpyridin-2-yl)methyl]-2,4-dioxo-1,3,8-triazaspiro[4.5]dec-1-yl}pyridine-2-carboxylic acid] fall in the same range of pIC50: 7.70 to 9.30 for the first, 7.70 to 9.30 for the second.

COc1cc(N2C(=O)N(c3ccc(-c4ccc(C5CC(=O)NN5)cc4)cc3)C(=O)C23CCN(Cc2ncccc2C)CC3)ncn1 (stereo not shown) [Compound 7-13, 1-(6-methoxypyrimidin-4-yl)-8-[(3-methylpyridin-2-yl)methyl]-3-[4′-(5-oxopyrazolidin-3-yl)biphenyl-4-yl]-1,3,8-triazaspiro[4.5] decane-2,4-dione] and Cc1cc(N2C(=O)N(c3ccc(-c4ccc(C(=O)O)cc4)cc3)C(=O)C23CCN(Cc2ncccc2C)CC3)ncn1 [Compound 7-9, 4′-[8-[(3-methylpyridin-2-yl)methyl]-1-(6-methylpyrimidin-4-yl)-2,4-dioxo-1,3,8-triazaspiro[4.5]dec-3-yl]biphenyl-4-carboxylic acid] fall in the same range of pIC50: 7.70 to 9.30 for the first, 7.70 to 9.30 for the second.

First: Cc1cccnc1CN1CCC2(CC1)C(=O)N(c1ccc(-c3ccc(CC(=O)O)cc3)cc1)C(=O)N2c1ncccn1 [Compound 1-67, (4′-{8-[(3-methylpyridin-2-yl)methyl]-2,4-dioxo-1-pyrimidin-2-yl-1,3,8-triazaspiro[4.5]dec-3-yl}biphenyl-4-yl)acetic acid]
Second: Cc1cncc(N2C(=O)N(c3ccc(-c4ccc(C(=O)O)cc4)cc3)C(=O)C23CCN(Cc2ncccc2C)CC3)n1 [Compound 7-7, 4′-{1-(6-methylpyrazin-2-yl)-8-[(3-methylpyridin-2-yl)methyl]-2,4-dioxo-1,3,8-triazaspiro[4.5]dec-3-yl}biphenyl-4-carboxylic acid]
The pIC50 of the first is lower: 7.30 to 7.70 for the first, 7.70 to 9.30 for the second. The second is the more potent here.

Compared with Cc1cccnc1CN1CCC2(CC1)C(=O)N(c1ccc(-c3ccccc3)cc1)C(=O)N2c1cnc(O)cn1 [Compound 1-45, 3-biphenyl-4-yl-1-(5-hydroxypyrazin-2-yl)-8-[(3-methylpyridin-2-yl)methyl]-1,3,8-triazaspiro[4.5]decane-2,4-dione], Cc1cccnc1CN1CCC2(CC1)C(=O)N(c1ccc(-c3ccccc3)cc1)C(=O)N2c1ccncn1 [Compound 1-68, 3-biphenyl-4-yl-8-[(3-methylpyridin-2-yl)methyl]-1-pyrimidin-4-yl-1,3,8-triazaspiro[4.5]decane-2,4-dione] is higher in pIC50: 7.30 to 7.70 for the first, 7.70 to 9.30 for the second. The second is the more potent here.

First: O=C(O)CN1CCC2(CC1)C(=O)N(c1ccc(-c3ccccc3)cc1)C(=O)N2c1cncnc1 [Compound 2-4, (3-biphenyl-4-yl-2,4-dioxo-1-pyrimidin-5-yl-1,3,8-triazaspiro[4.5]dec-8-yl)acetic acid]
Second: O=C(O)CN1CCC2(CC1)C(=O)N(c1ccc(-c3ccccc3)cc1)C(=O)N2c1ncccn1 [Compound 2-5, (3-biphenyl-4-yl-2,4-dioxo-1-pyrimidin-2-yl-1,3,8-triazaspiro[4.5]dec-8-yl)acetic acid]
The pIC50 of the first is lower: 7.30 to 7.70 for the first, 7.70 to 9.30 for the second.

Cc1cccnc1CN1CCC2(CC1)C(=O)N(c1ccc(-c3ccccc3)cc1)C(=O)N2c1ccccc1 [Compound 1-4, 3-biphenyl-4-yl-8-[(3-methylpyridin-2-yl)methyl]-1-phenyl-1,3,8-triazaspiro[4.5]decane-2,4-dione] and Cc1cccnc1CN1CCC2(CC1)C(=O)N(c1ccc(-c3ccccc3)cc1)C(=O)N2c1cccnc1 [Compound 1-18, 3-biphenyl-4-yl-8-[(3-methylpyridin-2-yl)methyl]-1-pyridin-3-yl-1,3,8-triazaspiro[4.5]decane-2,4-dione] fall in the same range of pIC50: 7.70 to 9.30 for the first, 7.70 to 9.30 for the second.

Cc1cccnc1CN1CCC2(CC1)C(=O)N(c1ccccc1)C(=O)N2c1nccc(O)n1 [Compound 1-3, 1-(4-hydroxypyrimidin-2-yl)-8-[(3-methylpyridin-2-yl)methyl]-3-phenyl-1,3,8-triazaspiro[4.5]decane-2,4-dione] and Cc1cccnc1CN1CCC2(CC1)C(=O)N(c1ccc(C(=O)O)cc1)C(=O)N2c1nccc(O)n1 [Compound 1-17, 4-{1-(4-hydroxypyrimidin-2-yl)-8-[(3-methylpyridin-2-yl)methyl]-2,4-dioxo-1,3,8-triazaspiro[4.5]dec-3-yl}benzoic acid] cannot be ordered by pIC50: < 7.30 for the first, < 7.30 for the second.

First: COc1ccnc(N2C(=O)N(c3ccc(-c4ccccc4)cc3)C(=O)C23CCN(Cc2nc[nH]c2C)CC3)n1 [Compound 1-49, 3-biphenyl-4-yl-1-(4-methoxypyrimidin-2-yl)-8-[(5-methyl-1-H-imidazol-4-yl)methyl]-1,3,8-triazaspiro[4.5]decane-2,4-dione]
Second: COc1ccnc(N2C(=O)N(c3ccc(-c4ccccc4)cc3)C(=O)C23CCN(Cc2ncccc2Br)CC3)n1 [Compound 1-28, 3-biphenyl-4-yl-8-[(3-bromopyridin-2-yl)methyl]-1-(4-methoxypyrimidin-2-yl)-1,3,8-triazaspiro[4.5]decane-2,4-dione]
The pIC50 of the first is higher: 7.70 to 9.30 for the first, 7.30 to 7.70 for the second. The first is the more potent here.

Cc1[nH]cnc1CN1CCC2(CC1)C(=O)N(c1ccc(-c3ccccc3)cc1)C(=O)N2c1cc(O)ncn1 [Compound 1-53, 3-biphenyl-4-yl-1-(6-hydroxypyrimidin-4-yl)-8-[(5-methyl-1-H-imidazol-4-yl)methyl]-1,3,8-triazaspiro[4.5]decane-2,4-dione] and CCCCOC(=O)c1[nH]cnc1CN1CCC2(CC1)C(=O)N(c1ccc(-c3ccccc3)cc1)C(=O)N2c1cc(OC)ncn1 [Compound 1-48, Butyl 4-{[3-biphenyl-4-yl-1-(6-methoxypyrimidin-4-yl)-2,4-dioxo-1,3,8-triazaspiro[4.5]dec-8-yl]methyl}-1-H-imidazole-5-carboxylate] fall in the same range of pIC50: 7.70 to 9.30 for the first, 7.70 to 9.30 for the second.

COc1cc(OC)nc(N2C(=O)N(c3ccc(-c4ccccc4)cc3)C(=O)C23CCN(Cc2ncccc2C)CC3)n1 [Compound 1-57, 3-biphenyl-4-yl-1-(4,6-dimethoxypyrimidin-2-yl)-8-[(3-methylpyridin-2-yl)methyl]-1,3,8-triazaspiro[4.5]decane-2,4-dione] and COc1cc(O)nc(N2C(=O)N(c3ccc(-c4ccccc4)cc3)C(=O)C23CCN(Cc2ncccc2C)CC3)n1 [Compound 1-56, 3-biphenyl-4-yl-1-(4-hydroxy-6-methoxypyrimidin-2-yl)-8-[(3-methylpyridin-2-yl)methyl]-1,3,8-triazaspiro[4.5]decane-2,4-dione] fall in the same range of pIC50: 7.70 to 9.30 for the first, 7.70 to 9.30 for the second.

CCCCOC(=O)c1[nH]cnc1CN1CCC2(CC1)C(=O)N(c1ccc(-c3ccccc3)cc1)C(=O)N2c1nccc(OC)n1 [Compound 1-47, Butyl 4-{[3-biphenyl-4-yl-1-(4-methoxypyrimidin-2-yl)-2,4-dioxo-1,3,8-triazaspiro[4.5]dec-8-yl]methyl}-1-H-imidazole-5-carboxylate] and O=C(O)c1[nH]cnc1CN1CCC2(CC1)C(=O)N(c1ccc(-c3ccccc3)cc1)C(=O)N2c1nccc(O)n1 [Compound 1-50] fall in the same range of pIC50: 7.30 to 7.70 for the first, 7.30 to 7.70 for the second.

First: COc1ccnc(N2C(=O)N(c3ccc(-c4ccccc4)cc3)C(=O)C23CCN(Cc2ncccc2-c2nnn[nH]2)CC3)n1 [Compound 1-41, 3-biphenyl-4-yl-1-(4-methoxypyrimidin-2-yl)-8-{[3-(1H-tetrazol-5-yl)pyridin-2-yl]methyl}-1,3,8-triazaspiro[4.5]decane-2,4-dione]
Second: COc1ccnc(N2C(=O)N(c3ccc(-c4ccccc4)cc3)C(=O)C23CCN(CC(=O)O)CC3)n1 [Compound 2-6, [3-biphenyl-4-yl-1-(4-methoxypyrimidin-2-yl)-2,4-dioxo-1,3,8-triazaspiro[4.5]dec-8-yl]acetic acid]
The pIC50 of the first is lower: < 7.30 for the first, 7.70 to 9.30 for the second. The second is the more potent here.

Cc1cccnc1CN1CCC2(C(=O)N(c3ccc(-c4ccccc4)cc3)C(=O)N2c2nccc(O)n2)C(C(=O)O)C1 (stereo not shown) [Compound 3-4, 3-biphenyl-4-yl-1-(4-hydroxypyrimidin-2-yl)-8-[(3-methylpyridin-2-yl)methyl]-2,4-dioxo-1,3,8-triazaspiro[4.5]decane-6-carboxylic acid] and Cc1cccnc1CN1CCC2(CC1)C(=O)N(c1ccc(-c3ccccc3)cc1)C(=O)N2c1ccc(C#N)cn1 [Compound 1-7, 6-{3-biphenyl-4-yl-8-[(3-methylpyridin-2-yl)methyl]-2,4-dioxo-1,3,8-triazaspiro[4.5]dec-1-yl}nicotinonitrile] fall in the same range of pIC50: 7.70 to 9.30 for the first, 7.70 to 9.30 for the second.

Cc1cccnc1CN1CCC2(CC1)C(=O)N(c1ccc(Br)cc1)C(=O)N2c1cc(-c2ccc(C(=O)O)cc2)ncn1 [Compound 7-15, 4-(6-{3-(4-bromophenyl)-8-[(3-methylpyridin-2-yl)methyl]-2,4-dioxo-1,3,8-triazaspiro[4.5]dec-1-yl}pyrimidin-4-yl)benzoic acid] and CCOC(=O)c1ccc(N2C(=O)N(c3nccc(OC)n3)C3(CCN(Cc4ncccc4C)CC3)C2=O)cc1 [Compound 1-26, ethyl 4-{1-(4-methoxypyrimidin-2-yl)-8-[(3-methylpyridin-2-yl)methyl]-2,4-dioxo-1,3,8-triazaspiro[4.5]dec-3-yl}benzoate] fall in the same range of pIC50: 7.70 to 9.30 for the first, 7.70 to 9.30 for the second.

Same assay, conditions: read-out: PHD2 Binding Activity IC50

Cc1cccnc1CN1CCC2(CC1)C(=O)N(c1ccc(-c3ccccc3)cc1)C(=O)N2C(=O)N[C@H](C)C(=O)O [Compound 5-4, (2R)-2-[({3-biphenyl-4-yl-8-[(3-methylpyridin-2-yl)methyl]-2,4-dioxo-1,3,8-triazaspiro[4.5]dec-1-yl}carbonyl)amino]propanoic acid] and Cc1cccnc1CN1CCC2(CC1)C(=O)N(c1ccc(-c3ccccc3)cc1)C(=O)N2C(=O)NC(C)(C)C(=O)O [Compound 5-3, 2-[({3-biphenyl-4-yl-8-[(3-methylpyridin-2-yl)methyl]-2,4-dioxo-1,3,8-triazaspiro[4.5]dec-1-yl}carbonyl)amino]-2-methylpropanoic acid] fall in the same range of pIC50: 7.70 to 9.30 for the first, 7.70 to 9.30 for the second.

Cc1cccnc1CN1CCC2(CC1)C(=O)N(c1ccc(-c3ccccc3)cc1)C(=O)N2C(=O)CCC(=O)O [Compound 5-7, 4-{3-biphenyl-4-yl-8-[(3-methylpyridin-2-yl)methyl]-2,4-dioxo-1,3,8-triazaspiro[4.5]dec-1-yl}-4-oxobutanoic acid] showed a pIC50 of 7.70 to 9.30.
